Patent US20250186627A1, “RADIOLABELED COMPOUNDS TARGETING THE PROSTATE-SPECIFIC MEMBRANE ANTIGEN” (PROVINCIAL HEALTH SERVICES AUTHORITY, priority 2022, published 2025)
Blank lines part the entries; values can stand above or below the molecule they belong to. *1 amine or outer side, *2 acyl side, *3 side chain or, on linkers, in order; H or OH if unused. Where a SMILES comes first, the peptide text is derived from it. [ ]: non-standard residue; d: D form. The star is where a group is joined. ξ: configuration not given here. AadUreaLys(Nε) = O=C(O)CCC[C@H](NC(=O)N[C@@H](CCCCN*)C(=O)O)C(=O)O; X4 = O=C(N[C@@H](CCCCN*)C(=O)O)N[C@@H](C[C@@H](F)C(=O)O)C(=O)O; ξLys(Nα-CO-ξAad) = O=C(O)CCCC(NC(=O)NC(CCCCN*)C(=O)O)C(=O)O; Butanoyl(4-(4-NO2Ph)) = O=C(CCCc1ccc([N+](=O)[O-])cc1)*; DOTA = O=C(O)CN1CCN(CC(=O)O)CCN(CC(=O)*)CCN(CC(=O)O)CC1; EuK = O=C(O)CC[C@H](NC(=O)N[C@@H](CCCCN*)C(=O)O)C(=O)O; Ala(9-anthryl) = N[C@@H](Cc1c2ccccc2cc2ccccc12)C(=O)O; Butanoyl(4-(4-MeO-phenyl)) = COc1ccc(CCCC(=O)*)cc1; ξAla(9-anthryl) = NC(Cc1c2ccccc2cc2ccccc12)C(=O)O; X1 = O=C(C1CCC(CN[*:1])CC1)[*:2]; X3 = O=C(C1CCC(N[*:1])CC1)[*:2]; ξK = NCCCCC(N)C(=O)O

Experiments:
PSMA = target: T1, PSMA (Homo sapiens, UniProt Q04609); experiment: In vitro PSMA competitive binding assay, LNCaP cells, [18F]DCFPyL radioligand; conditions: [18F]DCFPyL 0.1 nM, read-out: PSMA binding affinity (Ki)
T1 construct: endogenous in cells; host or cells: LNCaP cells
T1 sequence (Q04609 whole entry): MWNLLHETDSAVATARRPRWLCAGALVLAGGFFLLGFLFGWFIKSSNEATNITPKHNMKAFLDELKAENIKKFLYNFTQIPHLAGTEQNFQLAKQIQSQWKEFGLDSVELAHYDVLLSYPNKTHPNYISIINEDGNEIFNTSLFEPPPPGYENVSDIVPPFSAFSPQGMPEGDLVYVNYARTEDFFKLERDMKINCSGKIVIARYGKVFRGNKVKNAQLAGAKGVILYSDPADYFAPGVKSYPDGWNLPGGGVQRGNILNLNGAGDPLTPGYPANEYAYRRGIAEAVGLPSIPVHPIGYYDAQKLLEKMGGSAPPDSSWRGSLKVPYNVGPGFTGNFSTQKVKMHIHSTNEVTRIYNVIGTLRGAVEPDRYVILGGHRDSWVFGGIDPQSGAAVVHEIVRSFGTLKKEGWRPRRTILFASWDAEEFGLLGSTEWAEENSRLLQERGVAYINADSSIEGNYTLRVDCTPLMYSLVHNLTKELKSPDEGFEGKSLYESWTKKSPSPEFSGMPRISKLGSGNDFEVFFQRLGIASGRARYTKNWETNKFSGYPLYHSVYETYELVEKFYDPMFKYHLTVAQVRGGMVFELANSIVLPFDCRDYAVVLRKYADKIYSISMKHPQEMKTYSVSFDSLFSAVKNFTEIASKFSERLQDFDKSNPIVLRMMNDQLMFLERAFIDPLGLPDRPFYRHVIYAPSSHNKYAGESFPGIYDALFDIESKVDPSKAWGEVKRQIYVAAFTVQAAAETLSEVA
Experimental: Inhibition constants (Ki) to PSMA were measured by in vitro competition binding assays using [^18F]DCFPyL as the radioligand. LNCaP cells which were plated onto a 24-well poly-D-lysine coated plate for 48 h (400,000/well). Growth medium was removed and replaced with HEPES buffered saline (50 mM HEPES, pH 7.5, 0.9% sodium chloride). After 1 h, [^18F]DCFPyL (0.1 nM) was added to each well (in triplicate) containing varied concentrations ([…]) of tested compounds The assay mixtures were incubated for 1 h at 37° C. with gentle agitation followed by two washes with cold HEPES buffered saline. A trypsin solution (0.25%, 400 μL) was then added to each well to harvest the cells. Radioactivity was measured by gamma counting and Ki values calculated using the ‘one site—fit Ki’ built-in model in Prism 8 (GraphPad).

[1] = system: NRG-mice bearing LNCaP tumors; experiment: Biodistribution (and PET/SPECT imaging) in NRG-mice bearing LNCaP tumors; assay type: in vivo; conditions: for Biodistribution: Adrenal gland / Biodistribution: Blood / Biodistribution: Bone / Biodistribution: Brain / Biodistribution: Fat / Biodistribution: Heart / Biodistribution: Intestine / Biodistribution: LNCaP tumor / Biodistribution: Liver / Biodistribution: Lungs / Biodistribution: Muscle / Biodistribution: Pancreas / Biodistribution: Salivary gland / Biodistribution: Seminal gland / Biodistribution: Spleen / Biodistribution: Stomach / Biodistribution: Testes / Biodistribution: Thyroid / Biodistribution: Urine / Biodistribution: kidney: Avg
How it was run: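 LNCaP xenografts (~10 million cells, left dorsal flank) grown 4-6 weeks to 200-600 mm^3 in NRG mice. Tail-vein injection of 4-6 MBq ^68Ga or 18.5 MBq ^177Lu tracer under isoflurane; CT then 10-min static PET or 1-h SPECT. Biodistribution by gamma counting of weighed organs, expressed as %ID/g.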

Ki (PSMA): 1.54 nM
Compound: O=C(O)CC[C@H](NC(=O)N[C@@H](CCCCNC(=O)[C@H](Cc1c2ccccc2cc2ccccc12)NC(=O)C1CCC(CNC(=O)CNC(=O)[C@H](CCCCNC(=O)CN2CCN(CC(=O)O)CCN(CC(=O)O)CCN(CC(=O)O)CC2)NC(=O)CNC(=O)CCCc2ccc([N+](=O)[O-])cc2)CC1)C(=O)O)C(=O)O (some centres unmarked) [CCZ02024] ({Butanoyl(4-(4-NO2Ph))}-GK(DOTA)G[X1][Ala(9-anthryl)]-EuK)

Ki (PSMA): 0.59 nM
Compound: O=C(O)CN1CCN(CC(=O)O)CCN(CC(=O)NCCCC[C@H](NC(=O)CNC(=O)CCCc2ccc([N+](=O)[O-])cc2)C(=O)NCC(=O)NCC2CCC(C(=O)N[C@@H](Cc3c4ccccc4cc4ccccc34)C(=O)NCCCC[C@H](NC(=O)N[C@@H](C[C@@H](F)C(=O)O)C(=O)O)C(=O)O)CC2)CCN(CC(=O)O)CC1 (some centres unmarked) [CCZ02025] ({Butanoyl(4-(4-NO2Ph))}-GK(DOTA)G[X1][Ala(9-anthryl)]-X4)

Ki (PSMA): 2.82 nM
Compound: O=C(O)CCC[C@H](NC(=O)N[C@@H](CCCCNC(=O)[C@H](Cc1c2ccccc2cc2ccccc12)NC(=O)C1CCC(CNC(=O)CNC(=O)[C@H](CCCCNC(=O)CN2CCOCCN(CC(=O)O)CCN(CC(=O)O)CCOCCN(CC(=O)O)CC2)NC(=O)CNC(=O)CCCc2ccc([N+](=O)[O-])cc2)CC1)C(=O)O)C(=O)O (some centres unmarked) [CCZ02034]

Ki (PSMA): 11.2 nM
Compound: O=C(O)CCC[C@H](NC(=O)N[C@@H](CCCCNC(=O)[C@H](Cc1c2ccccc2cc2ccccc12)NC(=O)C1CCC(NC(=O)CNC(=O)C[C@H](CCCCNC(=O)CN2CCN(CC(=O)O)CCN(CC(=O)O)CCN(CC(=O)O)CC2)NC(=O)CNC(=O)CCCc2ccc([N+](=O)[O-])cc2)CC1)C(=O)O)C(=O)O (some centres unmarked) [CCZ02022]

Blood radioactivity ([1]; 1 and 3 h p.i.): high and sustained blood radioactivity
Biodistribution: Adrenal gland ([1]; 1 h p.i.): 3.82 % ID/g
Biodistribution: Blood ([1]; 1 h p.i.): 19.52 % ID/g
Biodistribution: Bone ([1]; 1 h p.i.): 0.77 % ID/g
Biodistribution: Brain ([1]; 1 h p.i.): 0.30 % ID/g
Biodistribution: Fat ([1]; 1 h p.i.): 1.35 % ID/g
Biodistribution: Heart ([1]; 1 h p.i.): 4.02 % ID/g
Biodistribution: Intestine ([1]; 1 h p.i.): 1.72 % ID/g
Biodistribution: LNCaP tumor ([1]; 1 h p.i.): 7.11 % ID/g
Biodistribution: Liver ([1]; 1 h p.i.): 3.04 % ID/g
Biodistribution: Lungs ([1]; 1 h p.i.): 6.51 % ID/g
Biodistribution: Muscle ([1]; 1 h p.i.): 1.15 % ID/g
Biodistribution: Pancreas ([1]; 1 h p.i.): 1.56 % ID/g
Biodistribution: Salivary gland ([1]; 1 h p.i.): 2.74 % ID/g
Biodistribution: Seminal gland ([1]; 1 h p.i.): 0.88 % ID/g
Biodistribution: Spleen ([1]; 1 h p.i.): 1.56 % ID/g
Biodistribution: Stomach ([1]; 1 h p.i.): 0.71 % ID/g
Biodistribution: Testes ([1]; 1 h p.i.): 2.33 % ID/g
Biodistribution: Thyroid ([1]; 1 h p.i.): 2.92 % ID/g
Biodistribution: Urine ([1]; 1 h p.i.): 63.67 % ID/g
Biodistribution: kidney ([1]; 1 h p.i.): 7.57 % ID/g
Biodistribution: Adrenal gland ([1]; 3 h p.i.): 4.34 % ID/g
Biodistribution: Blood ([1]; 3 h p.i.): 19.18 % ID/g
Biodistribution: Bone ([1]; 3 h p.i.): 1.62 % ID/g
Biodistribution: Brain ([1]; 3 h p.i.): 0.32 % ID/g
Biodistribution: Fat ([1]; 3 h p.i.): 1.52 % ID/g
Biodistribution: Heart ([1]; 3 h p.i.): 3.76 % ID/g
Biodistribution: Intestine ([1]; 3 h p.i.): 1.53 % ID/g
Biodistribution: LNCaP tumor ([1]; 3 h p.i.): 17.69 % ID/g
Biodistribution: Liver ([1]; 3 h p.i.): 3.35 % ID/g
Biodistribution: Lungs ([1]; 3 h p.i.): 7.15 % ID/g
Biodistribution: Muscle ([1]; 3 h p.i.): 1.34 % ID/g
Biodistribution: Pancreas ([1]; 3 h p.i.): 1.41 % ID/g
Biodistribution: Salivary gland ([1]; 3 h p.i.): 3.82 % ID/g
Biodistribution: Seminal gland ([1]; 3 h p.i.): 1.73 % ID/g
Biodistribution: Spleen ([1]; 3 h p.i.): 2.17 % ID/g
Biodistribution: Stomach ([1]; 3 h p.i.): 0.73 % ID/g
Biodistribution: Testes ([1]; 3 h p.i.): 2.28 % ID/g
Biodistribution: Thyroid ([1]; 3 h p.i.): 3.59 % ID/g
Biodistribution: Urine ([1]; 3 h p.i.): 56.09 % ID/g
Biodistribution: kidney ([1]; 3 h p.i.): 9.28 % ID/g
Compound: COc1ccc(CCCC(=O)NCC(=O)NC(CCCCNC(=O)CN2CCN(CC(=O)[O-])CCN(CC(=O)[O-])CCN(CC(=O)[O-])CC2)C(=O)NCC(=O)NCC2CCC(C(=O)NC(Cc3c4ccccc4cc4ccccc34)C(=O)NCCCCC(NC(=O)NC(CCCC(=O)O)C(=O)O)C(=O)O)CC2)cc1.[68Ga+3] (centres unmarked) [^68Ga-CCZ02009] ({Butanoyl(4-(4-MeO-phenyl))}-G[ξK](DOTA)G[X1][ξAla(9-anthryl)]-{ξLys(Nα-CO-ξAad)})

Biodistribution: Blood ([1]; 24 h p.i.): 0.73 % ID/g
Biodistribution: Bone ([1]; 24 h p.i.): 0.18 % ID/g
Biodistribution: Intestine ([1]; 24 h p.i.): 0.18 % ID/g
Biodistribution: LNCaP tumor ([1]; 24 h p.i.): 42.96 % ID/g
Biodistribution: Liver ([1]; 24 h p.i.): 0.49 % ID/g
Biodistribution: Muscle ([1]; 24 h p.i.): 0.10 % ID/g
Biodistribution: Salivary gland ([1]; 24 h p.i.): 0.35 % ID/g
Biodistribution: Spleen ([1]; 24 h p.i.): 0.33 % ID/g
Biodistribution: Urine ([1]; 24 h p.i.): 19.02 % ID/g
Biodistribution: kidney ([1]; 24 h p.i.): 6.06 % ID/g
Biodistribution: Blood ([1]; 72 h p.i.): 0.07 % ID/g
Biodistribution: Bone ([1]; 72 h p.i.): 0.19 % ID/g
Biodistribution: Intestine ([1]; 72 h p.i.): 0.08 % ID/g
Biodistribution: LNCaP tumor ([1]; 72 h p.i.): 56.98 % ID/g
Biodistribution: Liver ([1]; 72 h p.i.): 0.27 % ID/g
Biodistribution: Muscle ([1]; 72 h p.i.): 0.15 % ID/g
Biodistribution: Salivary gland ([1]; 72 h p.i.): 0.31 % ID/g
Biodistribution: Spleen ([1]; 72 h p.i.): 0.36 % ID/g
Biodistribution: Urine ([1]; 72 h p.i.): 4.96 % ID/g
Biodistribution: kidney ([1]; 72 h p.i.): 4.30 % ID/g
Compound: COc1ccc(CCCC(=O)NCC(=O)NC(CCCCNC(=O)CN2CCN(CC(=O)[O-])CCN(CC(=O)[O-])CCN(CC(=O)[O-])CC2)C(=O)NCC2CCC(C(=O)NC(Cc3c4ccccc4cc4ccccc34)C(=O)NCCCCC(NC(=O)NC(CCCC(=O)O)C(=O)O)C(=O)O)CC2)cc1.[177Lu+3] (centres unmarked) [^177Lu-HTK03170, reference compound]

Further lines, the molecule ahead of its results:

Compound: O=C(O)CCC[C@H](NC(=O)N[C@@H](CCCCNC(=O)[C@H](Cc1c2ccccc2cc2ccccc12)NC(=O)C1CCC(NC(=O)CN2CCN(CC(=O)O)CCN(CC(=O)O)CCN(CC(=O)O)CC2)CC1)C(=O)O)C(=O)O (some centres unmarked) [CCZ02013]
Ki (PSMA): 1.53 ± 0.21 nM

Compound: O=C(O)CCC[C@H](NC(=O)N[C@@H](CCCCNC(=O)[C@H](Cc1c2ccccc2cc2ccccc12)NC(=O)C1CCC(NC(=O)CNC(=O)[C@H](CCCCNC(=O)CN2CCN(CC(=O)O)CCN(CC(=O)O)CCN(CC(=O)O)CC2)NC(=O)CNC(=O)CCCc2ccc([N+](=O)[O-])cc2)CC1)C(=O)O)C(=O)O (some centres unmarked) [CCZ02021] ({Butanoyl(4-(4-NO2Ph))}-GK(DOTA)G[X3][Ala(9-anthryl)]-{AadUreaLys(Nε)})
Ki (PSMA): 5.71 nM

Compound: O=C(O)CCC[C@H](NC(=O)N[C@@H](CCCCNC(=O)[C@H](Cc1c2ccccc2cc2ccccc12)NC(=O)C1CCC(NC(=O)CN2CCN(CC(=O)O)CCN(CC(=O)O)CCN(CC(=O)O)CC2)CC1)C(=O)O)C(=O)O (some centres unmarked) [CCZ02012]
Ki (PSMA): 1.67 nM

Compound: COc1ccc(CCCC(=O)NCC(=O)N[C@@H](CCCCNC(=O)CN2CCN(CC(=O)O)CCN(CC(=O)O)CCN(CC(=O)O)CC2)C(=O)NCC(=O)NCC2CCC(C(=O)N[C@@H](Cc3c4ccccc4cc4ccccc34)C(=O)NCCCC[C@H](NC(=O)N[C@@H](C[C@@H](F)C(=O)O)C(=O)O)C(=O)O)CC2)cc1 (some centres unmarked) [CCZ02008] ({Butanoyl(4-(4-MeO-phenyl))}-GK(DOTA)G[X1][Ala(9-anthryl)]-X4)
Ki (PSMA): 0.48 ± 0.1 nM

Compound: COc1ccc(CCCC(=O)NCC(=O)N[C@@H](CCCCNC(=O)CN2CCN(CC(=O)O)CCN(CC(=O)O)CCN(CC(=O)O)CC2)CC(=O)NCC2CCC(C(=O)N[C@@H](Cc3c4ccccc4cc4ccccc34)C(=O)NCCCC[C@H](NC(=O)N[C@@H](CCCC(=O)O)C(=O)O)C(=O)O)CC2)cc1 (some centres unmarked) [CCZ02015]
Ki (PSMA): 1.09 ± 0.3 nM

Compound: COc1ccc(CCCC(=O)NCC(=O)N[C@@H](CCCCNC(=O)CN2CCN(CC(=O)O)CCN(CC(=O)O)CCN(CC(=O)O)CC2)C(=O)NCC(=O)NCC(=O)NCC(=O)NCC(=O)NCC2CCC(C(=O)N[C@@H](Cc3c4ccccc4cc4ccccc34)C(=O)NCCCC[C@H](NC(=O)N[C@@H](CCCC(=O)O)C(=O)O)C(=O)O)CC2)cc1 (some centres unmarked) [CCZ02059] ({Butanoyl(4-(4-MeO-phenyl))}-GK(DOTA)GGGG[X1][Ala(9-anthryl)]-{AadUreaLys(Nε)})
Ki (PSMA): 10.8 ± 3.28 nM
